From ChEMBL document CHEMBL1201862, “PubChem BioAssay data set” (2004)
The source made the active and inactive calls.

Columns and labels:
[1] = target: T1, Cysteine protease ATG4B (Homo sapiens, UniProt Q9Y4P1); assay type: functional;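 also: Fluorescence-based dose-response confirmation assay measuring inhibition of ATG4B activity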
T1 sequence (Q9Y4P1 whole entry): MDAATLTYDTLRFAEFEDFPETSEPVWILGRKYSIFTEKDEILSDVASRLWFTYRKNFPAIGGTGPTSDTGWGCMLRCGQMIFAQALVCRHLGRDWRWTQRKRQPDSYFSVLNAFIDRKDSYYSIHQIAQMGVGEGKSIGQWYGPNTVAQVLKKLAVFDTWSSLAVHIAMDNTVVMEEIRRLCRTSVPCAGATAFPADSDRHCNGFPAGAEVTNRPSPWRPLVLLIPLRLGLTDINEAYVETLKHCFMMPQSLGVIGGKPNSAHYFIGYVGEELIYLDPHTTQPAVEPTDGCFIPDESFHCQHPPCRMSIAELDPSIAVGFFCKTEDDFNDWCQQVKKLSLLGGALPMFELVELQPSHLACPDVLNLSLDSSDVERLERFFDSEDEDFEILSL

[2] = target: T2, Replicative DNA helicase DnaB (Mycobacterium tuberculosis, UniProt P9WMR3); experiment: DnaB intein splicing inhibitors, dose response, biochemical, cell-free fluorescence (AID 449749); assay type: functional
T2 sequence (P9WMR3 whole entry): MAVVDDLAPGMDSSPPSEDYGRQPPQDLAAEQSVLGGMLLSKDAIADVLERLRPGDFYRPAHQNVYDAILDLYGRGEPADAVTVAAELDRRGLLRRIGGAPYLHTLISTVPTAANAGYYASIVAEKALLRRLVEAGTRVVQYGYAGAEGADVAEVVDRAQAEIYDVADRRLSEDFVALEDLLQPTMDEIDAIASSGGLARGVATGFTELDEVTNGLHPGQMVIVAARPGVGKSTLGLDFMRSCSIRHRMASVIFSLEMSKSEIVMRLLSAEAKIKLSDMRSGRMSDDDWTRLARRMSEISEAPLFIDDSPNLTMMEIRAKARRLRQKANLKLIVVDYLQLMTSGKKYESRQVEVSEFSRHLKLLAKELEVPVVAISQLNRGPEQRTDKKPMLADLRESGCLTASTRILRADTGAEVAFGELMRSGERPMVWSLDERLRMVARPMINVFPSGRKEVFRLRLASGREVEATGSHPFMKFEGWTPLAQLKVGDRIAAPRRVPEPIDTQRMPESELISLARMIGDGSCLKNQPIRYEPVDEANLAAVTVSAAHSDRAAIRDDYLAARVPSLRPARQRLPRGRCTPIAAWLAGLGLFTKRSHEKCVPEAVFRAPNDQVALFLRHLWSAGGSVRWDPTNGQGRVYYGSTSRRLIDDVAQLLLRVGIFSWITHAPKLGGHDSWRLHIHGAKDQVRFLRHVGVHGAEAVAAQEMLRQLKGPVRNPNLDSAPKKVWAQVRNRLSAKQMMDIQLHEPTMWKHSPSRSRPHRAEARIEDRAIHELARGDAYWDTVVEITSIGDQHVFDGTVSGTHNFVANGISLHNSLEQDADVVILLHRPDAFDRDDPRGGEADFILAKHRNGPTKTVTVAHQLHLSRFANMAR

[3] = target: Phospholipase A2 (Homo sapiens, UniProt P04054); assay type: functional;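 also: confirmatory dose-response counterscreen on phospholipase A2, testing hits that came from an ultra-high-throughput screen for ATG4B inhibitors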
[4] = target: T3, Protein RecA (Mycobacterium tuberculosis, UniProt P9WHJ3); experiment: Fluorescence Cell-Free Homogeneous Dose Retest to Identify Inhibitors of RecA-Intein Splicing Activity. [Related pubchem assays (depositor defined):AID2097, AID2223, AID489010, AID492950]; assay type: functional
T3 sequence (P9WHJ3 whole entry): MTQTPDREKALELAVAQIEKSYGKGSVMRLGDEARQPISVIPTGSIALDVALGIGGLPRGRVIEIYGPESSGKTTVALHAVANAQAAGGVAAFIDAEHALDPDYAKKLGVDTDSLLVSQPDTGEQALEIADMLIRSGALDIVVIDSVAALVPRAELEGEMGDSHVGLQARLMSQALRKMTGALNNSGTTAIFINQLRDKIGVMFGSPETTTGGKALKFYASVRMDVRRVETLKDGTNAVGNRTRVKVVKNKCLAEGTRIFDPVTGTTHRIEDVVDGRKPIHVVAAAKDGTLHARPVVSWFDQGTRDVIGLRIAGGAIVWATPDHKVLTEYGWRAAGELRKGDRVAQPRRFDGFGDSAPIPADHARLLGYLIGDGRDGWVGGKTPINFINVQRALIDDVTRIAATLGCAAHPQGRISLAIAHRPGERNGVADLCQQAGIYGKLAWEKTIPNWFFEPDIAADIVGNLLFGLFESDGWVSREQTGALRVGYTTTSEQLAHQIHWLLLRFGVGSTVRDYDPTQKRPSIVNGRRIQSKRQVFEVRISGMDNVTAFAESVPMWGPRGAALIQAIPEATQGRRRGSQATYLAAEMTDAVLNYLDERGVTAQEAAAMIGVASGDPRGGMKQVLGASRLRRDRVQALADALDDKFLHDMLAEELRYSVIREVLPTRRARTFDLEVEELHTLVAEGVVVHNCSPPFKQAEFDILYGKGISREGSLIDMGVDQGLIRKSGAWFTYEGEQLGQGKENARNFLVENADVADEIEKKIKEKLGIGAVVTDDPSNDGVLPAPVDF

[5] = target: Cytochrome P450 2D6 (Homo sapiens, UniProt P10635);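 also: CYP2D6 member of a cytochrome P450 panel assay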
[6] = target: Cytochrome P450 2C9 (Homo sapiens, UniProt P11712)
[7] = target: T4, Aminopeptidase N (Plasmodium falciparum FcB1/Columbia, UniProt O96935); experiment: P. falciparum M1AAP inhibitors, biochemical, fluorogenic H-Leu-NHMec substrate, 1536-well (AID 1445); parameters: species or system Plasmodium falciparum 3D7, 3D7
T4 sequence (O96935 whole entry): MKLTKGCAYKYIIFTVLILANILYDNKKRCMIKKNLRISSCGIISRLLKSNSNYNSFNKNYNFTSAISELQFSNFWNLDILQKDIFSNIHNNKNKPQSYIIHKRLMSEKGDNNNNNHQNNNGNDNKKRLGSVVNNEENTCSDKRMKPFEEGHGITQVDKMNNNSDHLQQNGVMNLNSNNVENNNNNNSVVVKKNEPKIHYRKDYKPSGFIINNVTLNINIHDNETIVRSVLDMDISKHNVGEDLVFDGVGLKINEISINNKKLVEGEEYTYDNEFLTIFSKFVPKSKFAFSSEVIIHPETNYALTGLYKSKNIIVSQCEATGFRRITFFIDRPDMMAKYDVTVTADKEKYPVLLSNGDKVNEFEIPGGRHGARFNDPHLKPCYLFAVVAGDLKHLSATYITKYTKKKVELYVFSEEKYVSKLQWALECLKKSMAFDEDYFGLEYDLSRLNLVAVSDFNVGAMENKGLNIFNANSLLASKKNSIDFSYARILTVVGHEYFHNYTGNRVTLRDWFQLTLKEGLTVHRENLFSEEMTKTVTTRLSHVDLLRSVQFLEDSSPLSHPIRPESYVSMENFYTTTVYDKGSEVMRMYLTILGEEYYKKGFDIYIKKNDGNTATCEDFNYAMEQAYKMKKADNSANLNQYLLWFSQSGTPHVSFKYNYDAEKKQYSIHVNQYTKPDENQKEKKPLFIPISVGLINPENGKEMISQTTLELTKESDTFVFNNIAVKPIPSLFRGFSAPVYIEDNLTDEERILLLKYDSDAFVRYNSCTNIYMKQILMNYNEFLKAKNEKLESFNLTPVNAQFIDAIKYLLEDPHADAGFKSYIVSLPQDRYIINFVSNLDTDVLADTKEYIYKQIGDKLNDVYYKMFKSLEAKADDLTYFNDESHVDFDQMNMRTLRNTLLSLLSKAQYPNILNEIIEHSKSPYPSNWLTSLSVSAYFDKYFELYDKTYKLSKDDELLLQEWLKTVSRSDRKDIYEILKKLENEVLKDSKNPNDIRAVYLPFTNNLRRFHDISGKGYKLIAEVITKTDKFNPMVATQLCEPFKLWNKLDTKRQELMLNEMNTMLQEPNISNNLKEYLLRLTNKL

[8] = tested on: Streptococcus sp. 'group A'; experiment: growth inhibition of control SK(-) GAS strain, dose response, counter-screen for streptokinase expression inhibitor project, luminescence, kanamycin, BacTiterGlo, confirmation (AID 1900); assay type: functional, organism-based
[9] = target: T5, Streptokinase A (Streptococcus pyogenes serotype M1, UniProt P10520); experiment: S. pyogenes streptokinase expression inhibitors, potency, dose response, plasminogen activation absorbance, OD405 (AID 1914); assay type: functional, Streptococcus pyogenes M1 GAS;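 also: secreted streptokinase activity via plasminogen activation per viability signal from cell pellet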
T5 sequence (P10520 whole entry): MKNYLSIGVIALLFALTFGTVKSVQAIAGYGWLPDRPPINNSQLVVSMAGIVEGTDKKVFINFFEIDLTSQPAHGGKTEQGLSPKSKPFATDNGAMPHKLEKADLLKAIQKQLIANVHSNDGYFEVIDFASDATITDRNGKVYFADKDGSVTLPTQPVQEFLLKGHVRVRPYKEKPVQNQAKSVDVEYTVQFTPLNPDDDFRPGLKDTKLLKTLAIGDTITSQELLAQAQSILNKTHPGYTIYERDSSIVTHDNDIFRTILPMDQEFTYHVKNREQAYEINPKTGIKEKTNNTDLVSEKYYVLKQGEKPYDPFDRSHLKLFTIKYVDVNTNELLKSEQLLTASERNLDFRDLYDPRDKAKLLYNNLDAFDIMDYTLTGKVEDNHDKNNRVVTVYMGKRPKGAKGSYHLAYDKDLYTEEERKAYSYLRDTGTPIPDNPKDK

[10] = tested on: Streptococcus; experiment: Group A Streptococcus viability loss, dose response, counter-screen for streptokinase expression inhibitor project, luminescence, BacTiterGlo (AID 1915); assay type: functional, organism-based;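 also: potency for reduction of bacterial viability or growth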
[11] = Shn3 3'UTR reporter inhibitors, dose response, cell-based, Clone20 osteoblasts, firefly luciferase, cherry-picked (AID 624132); assay type: functional;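 also: firefly luciferase luminescence from reporter carrying the Shn3 3'UTR in osteoblasts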
[12] = HepG2 cell cytotoxicity, dose response, cytotoxicity control for Shn3 inhibitor project, CellTiter-Glo, cherry-picked (AID 624134); assay type: functional, cell-based
[13] = control 3'UTR Renilla luciferase suppression, dose response, counter-screen for Shn3 inhibitor project, cell-based, Clone20-Shn3RL, cherry-picked (AID 624133); assay type: functional
[14] = target: Glyceraldehyde-3-phosphate dehydrogenase (Homo sapiens, UniProt P04406)
[15] = cytotoxicity in HEK-293T cells, dose response, cytotoxicity control for BCR NF-kB inhibitor project, luminescence, B-cell screen hits (AID 489021); assay type: functional, cell-based;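 also: HEK-293T cells carrying an NF-kB luciferase reporter; cells exposed to compound for about 14 hours before viability readout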
[16] = microbe, parasite or virus in culture; assay type: functional; conditions: Mycobacterium tuberculosis
[17] = growth suppression of PTEN-null colon cells, dose response, cell-based, HCT116 PTEN knockout (AID 1047); assay type: functional;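 also: HCT116 colon tumor cells with PTEN knocked out; cells exposed to compound for 60 hours before readout; potency for loss of cell viability measured by luminescence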
[18] = growth suppression of beta-catenin-knockout colon cells, dose response, cell-based, HCT116, human colon tumor (AID 1045); assay type: functional;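 also: HCT116 colon tumor cells with beta catenin knocked out; cells exposed to compound for 60 hours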
[19] = target: Paired box protein Pax-8 (Homo sapiens, UniProt Q06710); experiment: inhibitors of PAX8-driven TPO luciferase reporter, dose response, RMG-I cells, cherry-pick (AID 687027); assay type: functional, cell-based;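 also: luciferase reporter driven by Pax8 target thyroperoxidase promoter measured by SteadyGlo luminescence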
Chain of Paired box protein Pax-8 (Q06710 whole entry): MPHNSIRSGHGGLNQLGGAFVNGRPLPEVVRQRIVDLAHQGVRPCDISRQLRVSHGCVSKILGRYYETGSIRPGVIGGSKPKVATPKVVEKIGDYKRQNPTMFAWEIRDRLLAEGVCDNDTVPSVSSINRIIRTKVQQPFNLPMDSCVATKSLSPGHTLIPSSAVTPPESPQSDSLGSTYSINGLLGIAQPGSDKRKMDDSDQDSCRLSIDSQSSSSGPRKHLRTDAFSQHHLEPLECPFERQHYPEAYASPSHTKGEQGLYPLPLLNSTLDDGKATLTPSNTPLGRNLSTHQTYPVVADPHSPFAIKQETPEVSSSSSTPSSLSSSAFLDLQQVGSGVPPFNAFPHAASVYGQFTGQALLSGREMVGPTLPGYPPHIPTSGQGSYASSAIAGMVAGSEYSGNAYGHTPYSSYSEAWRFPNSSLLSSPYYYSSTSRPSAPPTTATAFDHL

Chain of Phospholipase A2 (P04054 whole entry): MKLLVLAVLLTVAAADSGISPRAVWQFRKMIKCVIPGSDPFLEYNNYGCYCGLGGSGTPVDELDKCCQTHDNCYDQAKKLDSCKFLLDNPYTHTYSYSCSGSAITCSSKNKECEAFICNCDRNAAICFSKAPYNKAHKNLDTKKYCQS
Chain of Glyceraldehyde-3-phosphate dehydrogenase (P04406 whole entry): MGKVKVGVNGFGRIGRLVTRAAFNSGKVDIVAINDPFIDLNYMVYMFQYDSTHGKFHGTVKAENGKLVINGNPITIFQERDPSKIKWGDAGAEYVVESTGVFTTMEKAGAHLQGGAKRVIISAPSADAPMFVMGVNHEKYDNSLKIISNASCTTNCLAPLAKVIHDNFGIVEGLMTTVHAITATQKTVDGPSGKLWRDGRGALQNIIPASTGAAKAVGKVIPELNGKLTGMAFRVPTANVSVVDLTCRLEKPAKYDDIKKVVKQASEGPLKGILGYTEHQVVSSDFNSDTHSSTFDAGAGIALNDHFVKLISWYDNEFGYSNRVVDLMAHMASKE
Chain of Cytochrome P450 2D6 (P10635 whole entry): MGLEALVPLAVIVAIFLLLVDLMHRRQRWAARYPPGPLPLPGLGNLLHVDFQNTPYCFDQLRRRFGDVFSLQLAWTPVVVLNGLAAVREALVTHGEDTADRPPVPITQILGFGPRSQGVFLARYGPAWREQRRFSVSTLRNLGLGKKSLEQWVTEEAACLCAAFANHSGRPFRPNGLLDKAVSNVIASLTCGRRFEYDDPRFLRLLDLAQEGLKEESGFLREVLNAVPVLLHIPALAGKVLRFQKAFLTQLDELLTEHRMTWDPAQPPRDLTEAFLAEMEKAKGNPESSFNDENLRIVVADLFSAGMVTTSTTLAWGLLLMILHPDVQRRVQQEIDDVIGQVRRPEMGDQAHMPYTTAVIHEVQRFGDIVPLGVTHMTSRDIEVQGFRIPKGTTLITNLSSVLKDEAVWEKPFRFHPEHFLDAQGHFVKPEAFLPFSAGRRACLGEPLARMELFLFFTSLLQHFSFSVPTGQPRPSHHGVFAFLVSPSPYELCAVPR
Chain of Cytochrome P450 2C9 (P11712 whole entry): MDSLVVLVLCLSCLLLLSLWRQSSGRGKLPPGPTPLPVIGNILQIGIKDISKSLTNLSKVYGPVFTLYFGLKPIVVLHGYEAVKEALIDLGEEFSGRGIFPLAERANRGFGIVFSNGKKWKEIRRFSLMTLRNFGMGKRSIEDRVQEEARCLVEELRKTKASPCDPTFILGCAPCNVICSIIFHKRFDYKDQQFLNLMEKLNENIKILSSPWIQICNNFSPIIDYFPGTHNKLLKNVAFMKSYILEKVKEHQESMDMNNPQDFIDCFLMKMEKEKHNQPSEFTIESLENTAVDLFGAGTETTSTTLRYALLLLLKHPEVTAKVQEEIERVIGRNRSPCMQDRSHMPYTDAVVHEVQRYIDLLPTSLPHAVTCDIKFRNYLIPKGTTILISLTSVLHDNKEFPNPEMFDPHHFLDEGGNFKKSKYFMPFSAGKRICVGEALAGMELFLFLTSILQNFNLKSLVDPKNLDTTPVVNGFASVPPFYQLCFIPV

Structure (SMILES): Cc1ccc(-c2[nH]nc3c2C(c2ccc(OC(=O)N4CCOCC4)cc2)C(C#N)=C(N)O3)cc1 (stereo not given)
- IC50 [1]: 15.8 µM (active)
- AC50 [2]: 4.61 µM (active)
- IC50 [3]: 11.7 µM (active)
- EC50 [4]: 1.18 µM (active)

Structure (SMILES): CC(C)(C)c1ccc(C(=O)C2CCCN(C(=O)c3ccccn3)C2)cc1 (stereo not given)
- IC50 [1]: 15.1 µM (active)
- IC50 [3]: 11.5 µM (active)

Structure (SMILES): O=C(c1ccc(-n2c(SCc3cccc(F)c3)nc3ccccc3c2=O)cc1)N1CCOCC1
- IC50 [1]: 10.1 µM (active)
- IC50 [3]: 8.49 µM (active)

Structure (SMILES): Cc1cccc(NC(S)=NNC(=O)c2csc3c2CCCC3)c1
- IC50 [1]: 11.2 µM (active)
- IC50 [3]: 13.2 µM (active)
- AC50 [5]: 25.1 µM (inconclusive)
- AC50 [6]: inconclusive

Structure (SMILES): NS(=O)(=O)c1ccc(N2N=C(c3ccccc3)CC2c2ccc(F)cc2)cc1 (stereo not given)
- IC50 [7]: 62 µM (active)
- EC50 [8]: 6.96 µM (active)
- EC50 [9]: 55.2 µM (active)
- EC50 [10]: 18.7 µM (active)

Structure (SMILES): CCCc1nc2sc3c(c2c(=O)n1NC(=O)c1ccco1)CC(C)(C)OC3
- IC50 [7]: 36.1 µM (active)

Structure (SMILES): Cc1ccc(NC(=O)CSc2nn(-c3ccccc3)c(=S)s2)cc1S(=O)(=O)N(C)C
- AC50 [11]: 5.82 µM (active)
- AC50 [12]: 45.6 µM (active)
- AC50 [13]: 55.6 µM (active)

Structure (SMILES): Cc1ccccc1C1C2=C(O)c3ccccc3C2=Nc2nn(-c3ccccc3)c(O)c21 (stereo not given)
- IC50 [7]: 40.4 µM (active)

Structure (SMILES): O=C(O)Cc1ccc(/C(=N\O)c2cccs2)s1
- IC50 [14]: > 100 µM (not active)

Structure (SMILES): O=C(COc1ccccc1/C=C\c1nc(O)c([N+](=O)[O-])c(O)n1)Nc1ccccc1
- IC50 [7]: 49 µM (active)

Structure (SMILES): NC(c1csc(NC(=O)Nc2cccc(C(F)(F)F)c2)n1)C1CCCCC1 (stereo not given)
- AC50 [11]: 4.81 µM (active)
- AC50 [12]: 11.3 µM (active)
- AC50 [13]: 7.42 µM (active)

Structure (SMILES): O=C(N/N=C/c1cccnc1)c1cc(-c2ccccc2OCc2ccccc2)[nH]n1
- IC50 [7]: 31.2 µM (active)
- IC50 [15]: 53.1 µM (inactive)

Structure (SMILES): COC(=O)N/N=C/c1cn(CCCOc2ccc(C)cc2)c2ccccc12
- IC50 [1]: 10.3 µM (active)
- IC50 [3]: 7.39 µM (active)

Structure (SMILES): C=C1C(=O)[C@@]23[C@H](O)C[C@@H]4C(C)(C)CC[C@H](O)[C@@]4(C)[C@@H]2CC[C@@H]1[C@H]3O [KAMEBANIN]
- CC50 [16]: 5.73 µM (active)
- EC50 [17]: 1.17 µM (active)
- EC50 [18]: 1.02 µM (active)
- AC50 [11]: 1.29 µM (active)
- AC50 [12]: 26.3 µM (active)
- AC50 [13]: 4.85 µM (active)
- AC50 [19]: 1.16 µM (active)

Structure (SMILES): O=C1OC[C@H](Cc2ccc3c(c2)OCO3)/C1=C\c1ccc2c(c1)OCO2 [SAVININ]
- AC50 [11]: 2.66 µM (active)
- AC50 [12]: 59.8 µM (active)
- AC50 [13]: 23.1 µM (active)
